# Laboratory results reported in patent US9296757B2, “Substituted benzothienopyrimidines” (BAYER PHARMA AKTIENGESELLSCHAFT, priority 2012, dated 2016).
# Target: human full-length MKNK1 (Homo sapiens (Human), UniProt Q9BUB5, T344D)
# Experiment: MKNK1 kinase high ATP assay (TR-FRET)
# Type: biochemical
# Settings: high ATP (2 mM final), 15 min preincubation with enzyme
# Experimental: MKNK1-inhibitory activity at high ATP of compounds of the present invention after their preincubation with MKNK1 was quantified employing the TR-FRET-based MKNK1 high ATP assay as described in the following paragraphs.
# A recombinant fusion protein of Glutathione-S-Transferase (GST, N-terminally) and human full-length MKNK1 (amino acids 1-424 and T344D of accession number BAA 19885.1), expressed in insect cells using baculovirus expression system and purified via glutathione sepharose affinity chromatography, was purchased from Carna Biosciences (product no 02-145) and used as enzyme. As substrate for the kinase reaction the biotinylated peptide biotin-Ahx-IKKRKLTRRKSLKG (C-terminus in amide form) was used, which can be purchased e.g. from the company Biosyntan (Berlin-Buch, Germany).
# For the assay 50 nL of a 100 fold concentrated solution of the test compound in DMSO was pipetted into a black low volume 384 well microtiter plate (Greiner Bio-One, Frickenhausen, Germany), 2 μL of a solution of MKNK1 in aqueous assay buffer [50 mM HEPES pH 7.5, 5 mM MgCl2, 1.0 mM dithiothreitol, 0.005% (v/v) Nonidet-P40 (Sigma)] was added and the mixture was incubated for 15 min at 22° C. to allow pre-binding of the test compounds to the enzyme before the start of the kinase reaction. Then the kinase reaction was started by the addition of 3 μL of a solution of adenosine-tri-phosphate (ATP, 3.3 mM=>final conc. in the 5 μL assay volume is 2 mM) and substrate (0.1 μM=>final conc. in the 5 μL assay volume is 0.06 μM) in assay buffer and the resulting mixture was incubated for a reaction time of 30 min at 22° C. The concentration of MKNK1 was adjusted depending of the activity of the enzyme lot and was chosen appropriate to have the assay in the linear range, typical concentrations were in the range of 0.003 μg/mL. The reaction was stopped by the addition of 5 μL of a solution of TR-FRET detection reagents (5 nM streptavidine-XL665 [Cisbio Bioassays, Codolet, France] and 1 nM anti-ribosomal protein S6 (pSer236)-antibody from Invitrogen [#44921G] and 1 nM LANCE EU-W1024 labeled ProteinG [Perkin-Elmer, product no. AD0071]) in an aqueous EDTA-solution (100 mM EDTA, 0.1% (w/v) bovine serum albumin in 50 mM HEPES pH 7.5).
# The resulting mixture was incubated for 1 h at 22° C. to allow the formation of complex between the phosphorylated biotinylated peptide and the detection reagents. Subsequently the amount of phosphorylated substrate was evaluated by measurement of the resonance energy transfer from the Eu-chelate to the streptavidine-XL. Therefore, the fluorescence emissions at 620 nm and 665 nm after excitation at 350 nm were measured in a TR-FRET reader, e.g. a Rubystar (BMG Labtechnologies, Offenburg, Germany) or a Viewlux (Perkin-Elmer). The ratio of the emissions at 665 nm and at […] was taken as the measure for the amount of phosphorylated substrate. The data were normalised (enzyme reaction without inhibitor=0% inhibition, all other assay components but no enzyme=100% inhibition).
# human full-length MKNK1, sequence (Q9BUB5 other isoform, or with tags, fused parts or gaps T344D): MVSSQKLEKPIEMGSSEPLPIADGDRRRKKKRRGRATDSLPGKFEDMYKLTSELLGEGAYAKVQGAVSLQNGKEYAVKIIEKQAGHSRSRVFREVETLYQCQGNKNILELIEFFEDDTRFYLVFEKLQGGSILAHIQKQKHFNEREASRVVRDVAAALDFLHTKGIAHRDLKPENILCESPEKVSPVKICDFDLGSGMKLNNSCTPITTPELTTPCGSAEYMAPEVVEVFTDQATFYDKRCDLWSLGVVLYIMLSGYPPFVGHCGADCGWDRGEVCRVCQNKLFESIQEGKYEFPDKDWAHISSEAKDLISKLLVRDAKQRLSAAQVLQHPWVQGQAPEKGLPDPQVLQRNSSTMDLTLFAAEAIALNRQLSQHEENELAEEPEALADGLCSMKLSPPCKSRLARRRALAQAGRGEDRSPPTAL
row,SMILES,IC50 [nM]
1,"O=C(NCC1CCc2c(sc3ncnc(Nc4ccc5[nH]c(=O)sc5c4)c23)C1)[C@@H](O)Cc1ccccc1 (mixture of isomers) [Example 23, (2R)-2-Hydroxy-N-({(7RS)-4-[(2-oxo-2,3-dihydro-1,3-benzothiazol-6-yl)amino]-5,6,7,8-tetrahydro[1]benzothieno[2,3-d]pyrimidin-7-yl}methyl)-3-phenylpropanamide]",43
2,"CC(C)(C)OC(=O)N[C@@H](CCO)C(=O)NCC1CCc2c(sc3ncnc(Nc4ccc5[nH]c(=O)sc5c4)c23)C1 (mixture of isomers) [Example 27, tert-Butyl {(2R)-4-hydroxy-1-oxo-1-[({(7RS)-4-[(2-oxo-2,3-dihydro-1,3-benzothiazol-6-yl)amino]-5,6,7,8-tetrahydro[1]benzothieno[2,3-d]pyrimidin-7-yl}methyl)amino]butan-2-yl}carbamate]",100
3,"N[C@@H](CCO)C(=O)NCC1CCc2c(sc3ncnc(Nc4ccc5[nH]c(=O)sc5c4)c23)C1 (mixture of isomers) [Example 32, N-({4-[(2-Oxo-2,3-dihydro-1,3-benzothiazol-6-yl)amino]-5,6,7,8-tetrahydro[1]benzothieno[2,3-d]pyrimidin-7-(RS)-yl}methyl)-L-homoserinamide]",92
4,"O=C(NC1CC1)C1CCc2c(sc3ncnc(Nc4ccc5[nH]c(=O)sc5c4)c23)C1 (racemic) [Example 4, (RS)—N-Cyclopropyl-4-[(2-oxo-2,3-dihydro-1,3-benzothiazol-6-yl)amino]-5,6,7,8-tetrahydro[1]benzothieno[2,3-d]pyrimidine-7-carboxamide]",57
5,"CC(C)NC(=O)C1CCc2c(sc3ncnc(Nc4ccc5[nH]c(=O)sc5c4)c23)C1 (racemic) [Example 5, (RS)—N-Isopropyl-4-[(2-oxo-2,3-dihydro-1,3-benzothiazol-6-yl)amino]-5,6,7,8-tetrahydro[1]benzothieno[2,3-d]pyrimidine-7-carboxamide]",36
6,"CC(C)CNC(=O)C1CCc2c(sc3ncnc(Nc4ccc5[nH]c(=O)sc5c4)c23)C1 (racemic) [Example 6, (RS)—N-Isobutyl-4-[(2-oxo-2,3-dihydro-1,3-benzothiazol-6-yl)amino]-5,6,7,8-tetrahydro[1]benzothieno[2,3-d]pyrimidine-7-carboxamide]",40
7,"O=C(NCCC(F)(F)F)C1CCc2c(sc3ncnc(Nc4ccc5[nH]c(=O)sc5c4)c23)C1 (racemic) [Example 7, (RS)-4-[(2-Oxo-2,3-dihydro-1,3-benzothiazol-6-yl)amino]-N-(3,3,3-trifluoropropyl)-5,6,7,8-tetrahydro[1]benzothieno[2,3-d]pyrimidine-7-carboxamide]",42
8,"O=C(Nc1ccccc1)C1CCc2c(sc3ncnc(Nc4ccc5[nH]c(=O)sc5c4)c23)C1 (racemic) [Example 8, (RS)-4-[(2-Oxo-2,3-dihydro-1,3-benzothiazol-6-yl)amino]-N-phenyl-5,6,7,8-tetrahydro[1]benzothieno[2,3-d]pyrimidine-7-carboxamide]",33
9,"O=C(NCc1ccccc1)C1CCc2c(sc3ncnc(Nc4ccc5[nH]c(=O)sc5c4)c23)C1 (racemic) [Example 9, (RS)—N-Benzyl-4-[(2-oxo-2,3-dihydro-1,3-benzothiazol-6-yl)amino]-5,6,7,8-tetrahydro[1]benzothieno[2,3-d]pyrimidine-7-carboxamide]",9
10,"O=C(NCc1cccc(C(F)(F)F)c1)C1CCc2c(sc3ncnc(Nc4ccc5[nH]c(=O)sc5c4)c23)C1 (racemic) [Example 10, (RS)-4-[(2-Oxo-2,3-dihydro-1,3-benzothiazol-6-yl)amino]-N-[3-(trifluoromethyl)benzyl]-5,6,7,8-tetrahydro[1]benzothieno[2,3-d]pyrimidine-7-carboxamide]",11
11,"O=C(NCC1CC1)C1CCc2c(sc3ncnc(Nc4ccc5[nH]c(=O)sc5c4)c23)C1 (racemic) [Example 12, (RS)—N-(Cyclopropylmethyl)-4-[(2-oxo-2,3-dihydro-1,3-benzothiazol-6-yl)amino]-5,6,7,8-tetrahydro[1]benzothieno[2,3-d]pyrimidine-7-carboxamide]",48
12,"O=C(NCc1cccc(F)c1)C1CCc2c(sc3ncnc(Nc4ccc5[nH]c(=O)sc5c4)c23)C1 (racemic) [Example 14, (RS)—N-(3-Fluorobenzyl)-4-[(2-oxo-2,3-dihydro-1,3-benzothiazol-6-yl)amino]-5,6,7,8-tetrahydro[1]benzothieno[2,3-d]pyrimidine-7-carboxamide]",25
13,"O=C(NCC(F)(F)F)C1CCc2c(sc3ncnc(Nc4ccc5[nH]c(=O)sc5c4)c23)C1 (racemic) [Example 15, (RS)-4-[(2-oxo-2,3-dihydro-1,3-benzothiazol-6-yl)amino]-N-(2,2,2-trifluoroethyl)-5,6,7,8-tetrahydro[1]benzothieno[2,3-d]pyrimidine-7-carboxamide]",85
14,"COCC1(OC)CCc2c(sc3ncnc(Nc4ccc5[nH]c(=O)sc5c4)c23)C1 (racemic) [Example 16, (RS)-6-{[7-Methoxy-7-(methoxymethyl)-5,6,7,8-tetrahydro[1]benzothieno[2,3-d]pyrimidin-4-yl]amino}-1,3-benzothiazol-2(3H)-one]",304

# Results, then the compound that gave them:
row,IC50 [nM],SMILES
1,47,"CCOC(=O)C1CCc2c(sc3ncnc(Nc4ccc5[nH]c(=O)sc5c4)c23)C1 (racemic) [Example 1, (RS)-Ethyl 4-[(2-oxo-2,3-dihydro-1,3-benzothiazol-6-yl)amino]-5,6,7,8-tetrahydro[1]benzothieno[2,3-d]pyrimidine-7-carboxylate]"
2,108,"O=C(O)C1CCc2c(sc3ncnc(Nc4ccc5[nH]c(=O)sc5c4)c23)C1 (racemic) [Example 2, (RS)-4-[(2-Oxo-2,3-dihydro-1,3-benzothiazol-6-yl)amino]-5,6,7,8-tetrahydro[1]benzothieno[2,3-d]pyrimidine-7-carboxylic acid]"
3,39,"CCNC(=O)C1CCc2c(sc3ncnc(Nc4ccc5[nH]c(=O)sc5c4)c23)C1 (racemic) [Example 3, (RS)—N-Ethyl-4-[(2-oxo-2,3-dihydro-1,3-benzothiazol-6-yl)amino]-5,6,7,8-tetrahydro[1]benzothieno[2,3-d]pyrimidine-7-carboxamide]"
4,91,"CNC(=O)C1CCc2c(sc3ncnc(Nc4ccc5[nH]c(=O)sc5c4)c23)C1 (racemic) [Example 11, (RS)—N-Methyl-4-[(2-oxo-2,3-dihydro-1,3-benzothiazol-6-yl)amino]-5,6,7,8-tetrahydro[1]benzothieno[2,3-d]pyrimidine-7-carboxamide]"
5,41,"CN(C)C(=O)C1CCc2c(sc3ncnc(Nc4ccc5[nH]c(=O)sc5c4)c23)C1 (racemic) [Example 13, (RS)—N,N-Dimethyl-4-[(2-oxo-2,3-dihydro-1,3-benzothiazol-6-yl)amino]-5,6,7,8-tetrahydro[1]benzothieno[2,3-d]pyrimidine-7-carboxamide]"
6,128,"CC1CCc2c(sc3ncnc(Nc4ccc5[nH]c(=O)sc5c4)c23)C1 (racemic) [Example 17, (RS)-6-[(7-Methyl-5,6,7,8-tetrahydro[1]benzothieno[2,3-d]pyrimidin-4-yl)amino]-1,3-benzothiazol-2(3H)-one]"
7,60,"O=c1[nH]c2ccc(Nc3ncnc4sc5c(c34)CCC(CO)C5)cc2s1 (racemic) [Example 18, (RS)-6-{[7-(Hydroxymethyl)-5,6,7,8-tetrahydro[1]benzothieno[2,3-d]pyrimidin-4-yl]amino}-1,3-benzothiazol-2(3H)-one]"
